Assays:
Assay in all cases: selective drug sensitivity score (sDSS, relative to normal bone marrow) (sDSS (score)); higher = more potent and effective on the cell line relative to normal bone marrow cells
Details in all cases: 72 h
NALL-1 = test system: NALL-1
HPB-ALL = test system: HPB-ALL
KARPAS-45 = test system: KARPAS-45
697 = test system: 697
COG-LL-402h = test system: COG-LL-402h
PF-382 = test system: PF-382
MN-60 = test system: MN-60
P30-OHKUBO = test system: P30-OHKUBO
CCRF-CEM = test system: CCRF-CEM
MOLT-16 = test system: MOLT-16
COG-LL-319h = test system: COG-LL-319h
SUP-B15 = test system: SUP-B15
MHH-CALL-3 = test system: MHH-CALL-3
MOLT-14 = test system: MOLT-14
KASUMI-9 = test system: KASUMI-9
ALL-PO = test system: ALL-PO
ALL-SIL = test system: ALL-SIL
PEER = test system: PEER
JURKAT = test system: JURKAT
COG-LL-332h = test system: COG-LL-332h
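Also: ALL cell lines in 384-well plates, five doses spanning 10,000-fold, each plate scaled between vehicle and 100 µmol/L benzalkonium chloride controls, sDSS an adapted area-under-curve metric.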

SMILES | selective drug sensitivity score (NALL-1) | selective drug sensitivity score (HPB-ALL) | selective drug sensitivity score (KARPAS-45) | selective drug sensitivity score 697 | selective drug sensitivity score (COG-LL-402h) | selective drug sensitivity score (PF-382) | selective drug sensitivity score (MN-60) | selective drug sensitivity score (P30-OHKUBO) | selective drug sensitivity score (CCRF-CEM) | selective drug sensitivity score (MOLT-16) | selective drug sensitivity score (COG-LL-319h) | selective drug sensitivity score (SUP-B15) | selective drug sensitivity score (MHH-CALL-3) | selective drug sensitivity score (MOLT-14) | selective drug sensitivity score (KASUMI-9) | selective drug sensitivity score (ALL-PO) | selective drug sensitivity score (ALL-SIL) | selective drug sensitivity score (PEER) | selective drug sensitivity score (JURKAT) | selective drug sensitivity score (COG-LL-332h)
CN1CCN(C2CCC(n3cc(-c4ccc(Oc5ccccc5)cc4)c4c(N)ncnc43)CC2)CC1 (stereo not given) (top concentration 10000 nM) | 5.52 | 0.32 | 4.12 | 3.32 | 18.2 | 7.12 | 1.32 | 8.52 | 1.12 | 0.52 | 2.42 | 16.1 | 6.92 | 3.42 | 6.52 | 9.52 | 16.3 | 7.02 | 0.62 | 6.42
COc1cccc2c1C(=O)c1c(O)c3c(c(O)c1C2=O)C[C@@](O)(C(=O)CO)C[C@@H]3O[C@H]1C[C@H](N)[C@@H](O)[C@H](C)O1 [Epirubicin] (top concentration 1000 nM) | -5.28 | 0.12 | -0.28 | 10.1 | 14.9 | 2.12 | -0.98 | 6.92 | 8.02 | 15.4 | 16.3 | 13.7 | 14.8 | 11.6 | 7.62 | -1.78 | 0.42 | -2.98 | 1.02 | 11.3
CON(C)C(=O)N1N=C(c2cc(F)ccc2F)S[C@@]1(CCCN)c1ccccc1 [Filanesib] (top concentration 1000 nM) | 10.3 | 20.3 | 20.9 | 23 | 17.7 | 12.5 | 7.1 | 9.9 | 16.2 | 21.2 | 23.4 | 21.6 | 5.2 | 22.9 | 12.4 | 6.7 | 16.6 | 19.2 | 17.7 | 21.1
CN(Cc1cnc2nc(N)nc(N)c2n1)c1ccc(C(=O)N[C@@H](CCC(=O)O)C(=O)O)cc1 [Methotrexate] (top concentration 5000 nM) | 12.7 | 5.28 | 11.5 | 0.58 | 2.38 | 11.7 | 14.6 | -0.42 | 13 | 15.7 | 20.1 | -0.32 | 10.4 | 10.8 | -0.42 | -0.12 | 15 | 14.6 | 13.4 | 11.3
Cc1sc2c(c1C)C(c1ccc(Cl)cc1)=N[C@@H](CC(=O)NCCCCNC(=O)COc1cccc3c1C(=O)N(C1CCC(=O)NC1=O)C3=O)c1nnc(C)n1-2 (stereo not given in full) [dBET1] (top concentration 10000 nM) | -11.8 | -12.7 | -7.68 | -0.38 | 2.22 | -8.28 | -8.08 | 2.82 | -3.68 | 1.42 | 3.62 | 0.52 | -1.88 | -1.48 | 2.42 | -5.58 | -7.08 | -4.48 | -11.9 | -8.98
CC[C@H](CC#N)OC(=O)N[C@@H](C)c1cccc(NC(=O)Nc2ccc(-c3cnco3)c(OC)c2)c1 [AVN944] (top concentration 10000 nM) | 2.64 | 5.64 | 8.84 | 17.5 | 9.64 | 10.2 | 3.64 | 13.8 | 12.1 | 22.3 | 12.3 | 14.6 | 11.1 | 15.9 | 13.5 | 5.94 | 6.64 | 2.94 | 13.7 | 18
CO[C@H]1C[C@@H]2CC[C@@H](C)[C@@](O)(O2)C(=O)C(=O)N2CCCC[C@H]2C(=O)O[C@H]([C@H](C)C[C@@H]2CC[C@@H](OCCO)[C@H](OC)C2)CC(=O)[C@H](C)/C=C(\C)[C@@H](O)[C@@H](OC)C(=O)[C@H](C)C[C@H](C)/C=C/C=C/C=C/1C [Everolimus] (top concentration 100 nM) | -5.3 | -5.3 | 0.2 | 9.3 | 1 | 1.9 | 0.5 | 2 | 5.9 | 8.1 | 10.7 | 6.1 | 3.4 | -2.2 | 10.3 | 8.9 | -0.2 | 3.2 | -1 | 4.5
CC[C@@]1(O)C(=O)OCc2c1cc1n(c2=O)Cc2cc3c(CN(C)C)c(O)ccc3nc2-1 [Topotecan] (top concentration 10000 nM) | 20.4 | 11.2 | -0.22 | 18.9 | 17.7 | 18.2 | 4.28 | 18.9 | 21.2 | 21.5 | 18.6 | 22.4 | 12.2 | 25.9 | 18.2 | 17.9 | 24.9 | 10.1 | 15.2 | 23.9
O=c1[nH]c(=O)n([C@H]2C[C@H](O)[C@@H](CO)O2)cc1C(F)(F)F [Trifluridine] (top concentration 10000 nM) | 9.76 | 4.66 | -1.84 | 17.9 | 8.26 | 4.16 | 3.66 | 11.9 | 14.2 | 15.1 | 20.2 | 15.4 | 6.56 | 15.4 | 6.56 | 20 | 13.7 | 7.66 | 9.66 | 7.46
COc1ccc(-c2ccc3c(N4CCOC[C@@H]4C)nc(N4CCOC[C@@H]4C)nc3n2)cc1CO [AZD8055] (top concentration 10000 nM) | -3.22 | 0.18 | 4.78 | 16.8 | 9.88 | 9.18 | 7.98 | 16.6 | 13.4 | 12.5 | 5.28 | 11.9 | -0.52 | 1.18 | 13.3 | 10.6 | 6.78 | 6.08 | 4.88 | 8.08
